Assay results published in article PMC6694155, “PTPσ inhibitors promote hematopoietic stem cell regeneration” (Nature Communications, 2019).
“And” between values parts separate entries of the source, which are not always exact repeats. Equal values may be shown once.

Assays:
BM KSL cells [1] = assay: CFC assay from 300 cGy-irradiated BM KSL cells, 3 day culture; type: cell-based, mouse
Method: CFC assays (colony-forming unit-granulocyte monocyte), burst-forming unit-erythroid, and CFU-GEMM were performed using MethoCult GF M3434 (Stemcell Technologies)[6]. […] Recombinant mouse SCF, Flt3 ligand, and TPO were purchased from R&D Systems. For competitive repopulation assays, BM cells were isolated from donor 10–12-week-old female CD45.2^+ mice. Recipient 10-week-old female CD45.1^+ B6.SJL mice were irradiated with 950 cGy TBI using a Cs137 irradiator and donor BM cells were administered via tail vein injection along with a competing dose of 1 × 10^5 non-irradiated host BM cells. Multilineage donor hematopoietic cell engraftment was measured in the PB by flow cytometry.

BM KSL cells [2] = assay: CFC assay after lentiviral shRac1 or shBcl2l1 silencing and 300 cGy; type: cell-based, mouse; conditions: for Figure 3i: BFU-E / Figure 3i: CFU-GM / Figure 3i: GEMM: 300 cGy, replicates
Method: Rac1 CDS-targeting- and Bcl2l1 CDS-targeting shRNA in lentiviral plasmid (TRCN0000310888 and TRCN0000004685) and control shRNA (SHC216V) were purchased from Sigma Aldrich. […]. Viral particles were collected after 24 h and 48 h. […] Infected cells were collected the next day and irradiated with 300 cGy followed by treatment with or without 1 μg/mL DJ001, prior to CFC assay.
CFC assays (colony-forming unit-granulocyte monocyte), burst-forming unit-erythroid, and CFU-GEMM were performed using MethoCult GF M3434 (Stemcell Technologies)[6]. For all in vitro assays, BM CD34^−KSL cells, KSL cells, and Lin^− cells were cultured in TSF media (IMDM, 10% FBS, 1% pen-strep, 20 ng/mL recombinant mouse TPO, 125 ng/mL recombinant mouse SCF, 50 ng/mL recombinant mouse Flt3 ligand). Recombinant mouse SCF, Flt3 ligand, and TPO were purchased from R&D Systems. For competitive repopulation assays, BM cells were isolated from donor 10–12-week-old female CD45.2^+ mice. Recipient 10-week-old female CD45.1^+ B6.SJL mice were irradiated with 950 cGy TBI using a Cs137 irradiator and donor BM cells were administered via tail vein injection along with a competing dose of 1 × 10^5 non-irradiated host BM cells. Multilineage donor hematopoietic cell engraftment was measured in the PB by flow cytometry.

[3] = molecular target: T1, MKP5 (Mitogen-activated Protein Kinase Phosphatase 5) (Homo sapiens, UniProt Q9Y6W6); assay: PhosphataseProfiler screen: MKP5; type: biochemical; conditions: 0.27 g/mL DJ001; replicates
T1 construct: purchased Eurofins Pharma Discovery Services UK
Method: (§1) Compound DJ001 was evaluated in a PhosphataseProfiler™ screen at 10 μM and 1 μM (2.7 μg/mL and 0.27 μg/mL) concentrations at Eurofins Pharma Discovery Services UK (Study number UK022-0004033) against a panel of 21 Phosphatases. In each experiment, the respective reference antagonist/agonist was tested directly with DJ001 and the data were compared with historical values determined at Eurofins. DJ001 compound inhibition was calculated as percentage inhibition of the enzymatic activity compared with control.

[4] = tested on: CDC42-GTP in BM lin− cells; assay: G-LISA activation assay: CDC42-GTP; type: cell-based, mouse; conditions: for CDC42-GTP level (G-LISA): Supplementary Figure 7b (right panel)
Method: (§2) The RAC1-GTP, RHOA-GTP, and CDC42-GTP activation levels in BM lin^− cells were measured using a colorimetric-based RAC1-, RHOA-, and CDC42 G-LISA Activation Assay Kit (Cytoskeleton, Inc.). BM cells from femurs and tibias were isolated from 12-week-old Ptprs^+/+ and Ptprs^−/− mice. Cells were then depleted of lineage-committed cells with Direct Lineage Cell Depletion Kit (Miltenyi Biotec, #130-110-470; 1:5). The BM lin^− cell fraction was then serum starved in Iscove’s modified Dulbecco’s medium (IMDM) and treated with either vehicle (equal amount of DMSO) or 1 μg/mL DJ001 for 10 min at 37 °C. After treatment, cells were washed with ice-cold PBS and then placed in lysis buffer supplemented with protease inhibitor. Lysate concentrations were measured by Pierce^TM BCA Protein Assay Kit (ThermoFisher Scientific). G-LISA was performed according to the manufacturer’s instructions. Briefly, 12.5 μg of lysates was added to a GTP-binding protein pre-coated plate and active RAC1-GTP, RHOA-GTP, or CDC42-GTP levels were measured at 490 nm using a PowerWave XS2 microplate reader (BioTek).

[5] = molecular target: T2, VHR (Dual Specificity Phosphatase 3) (Homo sapiens, UniProt P51452); assay: PhosphataseProfiler screen: VHR; type: biochemical; conditions: replicates
T2 construct: purchased Eurofins Pharma Discovery Services UK
Method: as §1

[6] = tested on: RAC1-GTP in BM lin− cells; assay: G-LISA activation assay: RAC1-GTP; type: cell-based, mouse; conditions: for RAC1-GTP level (G-LISA): Supplementary Figure 7c
Method: as §2

[7] = BM KSL cells, 300 cGy, 3 days in TSF media + DJ001

T2 sequence (P51452 whole entry, species assumed): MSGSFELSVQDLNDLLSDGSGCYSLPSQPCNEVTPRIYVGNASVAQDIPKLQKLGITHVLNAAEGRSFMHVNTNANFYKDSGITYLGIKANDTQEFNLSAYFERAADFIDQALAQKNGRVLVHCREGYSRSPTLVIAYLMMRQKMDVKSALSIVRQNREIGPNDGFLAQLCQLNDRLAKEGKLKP
T1 sequence (Q9Y6W6 whole entry, species assumed): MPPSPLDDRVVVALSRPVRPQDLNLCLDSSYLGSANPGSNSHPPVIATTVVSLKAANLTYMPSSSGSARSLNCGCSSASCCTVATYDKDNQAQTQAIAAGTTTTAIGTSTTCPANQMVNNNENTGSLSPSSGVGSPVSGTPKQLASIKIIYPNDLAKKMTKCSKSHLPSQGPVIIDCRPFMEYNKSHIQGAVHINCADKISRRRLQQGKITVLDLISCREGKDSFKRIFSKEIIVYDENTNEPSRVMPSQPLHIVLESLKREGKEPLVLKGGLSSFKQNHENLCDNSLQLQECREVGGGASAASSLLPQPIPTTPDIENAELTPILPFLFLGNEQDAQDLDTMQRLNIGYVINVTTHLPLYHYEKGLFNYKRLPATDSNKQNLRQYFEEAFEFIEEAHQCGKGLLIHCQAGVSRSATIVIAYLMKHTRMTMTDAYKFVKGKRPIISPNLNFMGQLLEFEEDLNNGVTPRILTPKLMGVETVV

O=C(/C=C\Nc1cccc([N+](=O)[O-])c1)c1ccccc1 [DJ001, (Z)-3-((3-nitrophenyl)amino)-1-phenylprop-2-en-1-one]
recovery of BM CFCs and CFU-GEMM colonies vs control (BM KSL cells [1]; 300 cGy, 1 μg/mL DJ001, 3 days): increased recovery of BM CFCs | BFU-E, numbers per replicate (BM KSL cells [1]; [7]): 2 (3×) and 4 (2×) and 3 (5×) and 1 (2×) | GEMM, numbers per replicate (BM KSL cells [1]; [7]): 5 (3×) and 3 (2×) and 4 (2×) and 6 (5×) | CFU-GEMM (BM KSL cells [1]; Supplementary Figure 7g): 7 | CFU-GEMM (BM KSL cells [1]; Supplementary Figure 7d): 7 | DJ001-mediated recovery of hematopoietic progenitor cells with silencing of Rac1 or Bcl2l1 (BM KSL cells [2]; BM KSL cells, 48 h following 300 cGy): blocked DJ001-mediated recovery of hematopoietic progenitor cells | Figure 3i: BFU-E (BM KSL cells [2]; shBcl-xL): 1 | Figure 3i: CFU-GM (BM KSL cells [2]; shBcl-xL): 9 and 11 and 10 | Figure 3i: GEMM (BM KSL cells [2]; shBcl-xL): 2 and 1 (2×) | Figure 3i: BFU-E (BM KSL cells [2]; shCtrl): 2 and 3 (4×) and 4 (2×) and 5 (2×) | Figure 3i: CFU-GM (BM KSL cells [2]; shCtrl): 26 (3×) and 30 and 29 (2×) and 20 and 31 and 28 | Figure 3i: GEMM (BM KSL cells [2]; shCtrl): 5 (3×) and 13 and 8 (2×) and 7 and 10 and 9 | Figure 3i: BFU-E (BM KSL cells [2]; shRac1): 1 (2×) and 0 | Figure 3i: CFU-GM (BM KSL cells [2]; shRac1): 12 and 10 (2×) | Figure 3i: GEMM (BM KSL cells [2]; shRac1): 2 and 0 and 3 | Supplementary Figure 1: MKP5 activity [3]: 91 and 87 and 88 | activation of CDC42 ([4]; BM lin− cells, 1 μg/mL DJ001, 10 min): did not alter the activation | CDC42-GTP level (G-LISA) ([4]; Ptprs+/+ cells): 0.2383 and 0.2517 and 0.2371 | CDC42-GTP level (G-LISA) ([4]; Ptprs-/- cells): 0.1634 and 0.1869 and 0.1735 | Supplementary Figure 1: VHR activity ([5]; 2.7 μg/mL DJ001): 94 and 84 and 95 | Supplementary Figure 1: VHR activity ([5]; 0.27 g/mL DJ001): 100 and 101 and 98

O=C(/C=C\Nc1cc(F)cc(F)c1)c1ccccc1 [DJ009, (Z)-3-((3,5-difluorophenyl)amino)-1-phenylprop-2-en-1-one]
RAC1 activation ([6]; BM cells from Ptprs−/− mice, 1 μg/ml DJ001, 10 min): did not induce RAC1 activation | RAC1-GTP level (G-LISA) ([6]; Ptprs+/+ cells): 0.459 and 0.438 and 0.567 | RAC1-GTP level (G-LISA) ([6]; Ptprs-/- cells): 0.402 and 0.353 and 0.351 and 0.292
